According to the CheMixHub viscosity set:
“And” between values parts separate entries of the source, which are not always exact repeats. Identical values can stand only once.

Test: xn = mol fraction of the nth substance listed

CCCCNCCO + O
100 kPa, x2 = 0.62
Settings	viscosity [mPa·s]
293.15 K	29
303.15 K	16.7
313.15 K	10.3
323.15 K	6.73

CCOS(=O)(=O)[O-].CC[N+](CC)=C(N(C)C)N(C)C + O
viscosity [mPa·s], 100 kPa
Settings	x1 = 0.0999	x1 = 0.2003	x1 = 0.3005	x1 = 0.4004	x1 = 0.4989	x1 = 0.6001	x1 = 0.7	x1 = 0.801	x1 = 0.8982
293.15 K	12.38	25.31	39.06	53.18	68.18	85.88	107	132.6	160.6
298.15 K	10.01	19.81	29.97	40.42	51.48	64.33	79.13	97.08	116.9
303.15 K	8.224	15.93	23.79	31.86	40.31	49.98	60.7	73.9	88.11
308.15 K	6.765	12.88	19.09	25.43	32.02	39.28	47.26	57.08	67.41
313.15 K	5.628	10.63	15.72	20.82	26.05	31.62	37.7	45.18	53.08
318.15 K	4.66	8.802	13.04	17.16	21.39	25.68	30.35	36.2	42.47
323.15 K	3.828	7.374	10.99	14.3	17.61	21.15	24.97	29.66	34.73

CC[NH+](C)CC.[Br-] + O
viscosity [mPa·s], 100 kPa
Settings	298.15 K	303.15 K	308.15 K	313.15 K	318.15 K	323.15 K
x1 = 0.016	1.149	1.026	0.925	0.841	0.771	0.712
x1 = 0.0229	1.243	1.107	0.996	0.903	0.825	0.759
x1 = 0.0355	1.458	1.295	1.162	1.051	0.955	0.873
x1 = 0.0793	2.422	2.124	1.882	1.681	1.513	1.368
x1 = 0.0986	3.011	2.633	2.318	2.061	1.843	1.658
x1 = 0.1267	4.05	3.504	3.07	2.707	2.389	2.142
x1 = 0.1508	5.154	4.438	3.862	3.379	2.988	2.658
x1 = 0.1806	6.655	5.646	4.861	4.22	3.695	3.267
x1 = 0.2148	9.109	7.787	6.643	5.74	5.002	4.39
x1 = 0.2422	11.37	9.636	8.251	7.129	6.196	5.432
x1 = 0.2866	15.38	12.8	10.79	9.194	7.919	6.897
x1 = 0.3332	21.46	17.54	14.61	12.29	10.49	9.032
x1 = 0.4014	33.72	26.93	21.98	18.17	15.2	12.89

C[C@H](N)C(=O)N[C@@H](C)C(=O)O + O
viscosity [mPa·s], 101 kPa
Settings	x1 = 3.87e-05	x1 = 7.58e-05	x1 = 0.000107	x1 = 0.00015	x1 = 0.000172	x1 = 0.0002106	x1 = 0.0002561	x1 = 0.0002871	x1 = 0.0003202	x1 = 0.0003571
305.15 K	0.7669	0.7674	0.7681	0.7688	0.7719	0.7741	0.7782	0.7795	0.7798	0.7828
310.15 K	0.7029	0.7032	0.7033	0.7061	0.7067	0.7084	0.7089	0.7115	0.7139	0.7167
315.15 K	0.6416	0.6452	0.6473	0.6487	0.6499	0.6499	0.6519	0.6548	0.6573	0.6608

C[N+](C)(C)C.[OH-] + O
viscosity [mPa·s], 101 kPa
Settings	x1 = 0.00504	x1 = 0.0103	x1 = 0.02149	x1 = 0.0337	x1 = 0.04708	x1 = 0.06181	x1 = 0.07809
298.15 K	0.9677	1.119	1.278	1.627	1.978	3.087	4.216
303.15 K	0.8674	1.007	1.148	1.39	1.751	2.66	3.571
313.15 K	0.7118	0.818	0.9314	1.158	1.399	2.031	2.665
323.15 K	0.5982	0.678	0.7738	0.971	1.148	1.587	2.067

C[N+](C)(C)CCO.O=C([O-])c1ccccn1 + O
300 K, 100 kPa
Settings	viscosity [mPa·s]
x2 = 0.5	232.8
x2 = 0.68	35.3
x2 = 0.81	16.4

NCC(=O)NCC(=O)NCC(=O)NCC(=O)O + O
viscosity [mPa·s], 101 kPa
Settings	x1 = 9.96e-05	x1 = 0.000119	x1 = 0.0002046	x1 = 0.0002554	x1 = 0.0003681	x1 = 0.0004221	x1 = 0.0005133
298.15 K	0.893	0.894	0.8971	0.8987	0.9022	0.9037	0.9045
308.15 K	0.7219	0.7227	0.7246	0.7261	0.7289	0.7304	0.7337
318.15 K	0.5985	0.5992	0.6011	0.6019	0.6045	0.606	0.6079

O=P([O-])([O-])[O-].[H+].[K+].[K+] + O
viscosity [mPa·s], 101 kPa
Settings	x1 = 0.0018	x1 = 0.0054	x1 = 0.0089	x1 = 0.012	x1 = 0.016
298.15 K	0.931	1.001	1.091	1.203	1.329
303.15 K	0.8465	0.9207	0.9963	–	1.204
308.15 K	0.7552	0.814	0.8844	0.9818	1.081

[Cl-].[Cl-].[Mg+2] + O
viscosity
Settings	293.15 K	298.15 K	303.15 K	308.15 K	318.15 K
101 kPa, x1 = 0.0944	–	13.8 mPa·s	–	–	–
101.3 kPa, x1 = 0.0009	1.025 mPa·s	0.911 mPa·s	0.8162 mPa·s	0.7364 mPa·s	0.6104 mPa·s
101.3 kPa, x1 = 0.0018	1.046 mPa·s	0.9296 mPa·s and 0.936 mPa·s	0.8329 mPa·s	0.7517 mPa·s and 0.759 mPa·s	0.629 mPa·s
101.3 kPa, x1 = 0.0045	–	0.988 mPa·s	–	0.798 mPa·s	0.662 mPa·s
101.3 kPa, x1 = 0.0089	–	1.075 mPa·s	–	0.867 mPa·s	0.72 mPa·s
101.3 kPa, x1 = 0.00893	1.219 mPa·s	1.085 mPa·s	0.9729 mPa·s	0.8788 mPa·s	0.7293 mPa·s
101.3 kPa, x1 = 0.0177	1.475 mPa·s	1.314 mPa·s	1.179 mPa·s	1.065 mPa·s	0.8849 mPa·s
101.3 kPa, x1 = 0.03478	2.199 mPa·s	1.95 mPa·s	1.747 mPa·s	1.574 mPa·s	1.302 mPa·s
101.3 kPa, x1 = 0.05127	3.332 mPa·s	2.937 mPa·s	2.616 mPa·s	2.346 mPa·s	1.926 mPa·s
101.3 kPa, x1 = 0.06722	5.271 mPa·s	4.603 mPa·s	4.064 mPa·s	3.615 mPa·s	2.926 mPa·s
101.3 kPa, x1 = 0.08263	9.001 mPa·s	7.752 mPa·s	6.761 mPa·s	5.951 mPa·s	4.726 mPa·s

CCCCOCCO + O=C1CCCCC1
298.15 K, 101 kPa
Settings	viscosity
x2 = 0.118	2.522 mPa·s and 2.642 mPa·s
x2 = 0.2314	2.28 mPa·s and 2.518 mPa·s
x2 = 0.3404	2.108 mPa·s and 2.402 mPa·s
x2 = 0.4453	1.972 mPa·s and 2.304 mPa·s
x2 = 0.5463	1.873 mPa·s and 2.217 mPa·s
x2 = 0.6436	1.795 mPa·s and 2.146 mPa·s
x2 = 0.7375	1.763 mPa·s and 2.087 mPa·s
x2 = 0.8281	1.766 mPa·s and 2.048 mPa·s
x2 = 0.9155	1.822 mPa·s and 2.024 mPa·s

CCOC(=O)CCl + O=C1CCCCC1
viscosity [mPa·s], 101.3 kPa
Settings	x1 = 0.1084	x1 = 0.2069	x1 = 0.306	x1 = 0.3993	x1 = 0.5032	x1 = 0.6002	x1 = 0.6945	x1 = 0.7947	x1 = 0.8975
298.15 K	1.745	1.604	1.493	1.403	1.352	1.283	1.23	1.191	1.144
303.15 K	1.595	1.47	1.376	1.298	1.244	1.184	1.139	1.101	1.058
308.15 K	1.444	1.336	1.259	1.19	1.135	1.087	1.047	1.011	0.972

CNC=O + O=C1CCCCC1
viscosity [mPa·s], 101 kPa
Settings	x1 = 0.0868	x1 = 0.1762	x1 = 0.2682	x1 = 0.3632	x1 = 0.461	x1 = 0.562	x1 = 0.6662	x1 = 0.7738	x1 = 0.885
303.15 K	1.804	1.786	1.762	1.739	1.714	1.693	1.668	1.646	1.618
308.15 K	1.645	1.63	1.61	1.592	1.57	1.553	1.532	1.513	1.49
313.15 K	1.472	1.463	1.451	1.439	1.425	1.413	1.4	1.387	1.371
318.15 K	1.284	1.284	1.283	1.281	1.278	1.275	1.271	1.267	1.262

COC(=O)c1ccccc1 + O=C1CCCCC1
viscosity [mPa·s], 101 kPa
Settings	x1 = 0.0859	x1 = 0.1728	x1 = 0.2643	x1 = 0.3589	x1 = 0.4562	x1 = 0.5517	x1 = 0.6575	x1 = 0.7664	x1 = 0.8794
303.15 K	1.713	1.643	1.593	1.552	1.535	1.548	1.56	1.597	1.646
313.15 K	1.422	1.367	1.332	1.299	1.282	1.292	1.307	1.337	1.375

CC(C)OCCO + O=C1CCCN1
298.15 K, 101 kPa
Settings	viscosity [mPa·s]
x1 = 0.0071	13.9
x1 = 0.0159	13.59
x1 = 0.0316	12.93
x1 = 0.0611	11.92
x1 = 0.1046	10.57
x1 = 0.1603	9.092
x1 = 0.2294	7.709
x1 = 0.2699	7.051
x1 = 0.3267	6.264
x1 = 0.3725	5.709
x1 = 0.4121	5.308
x1 = 0.4371	5.073
x1 = 0.4623	4.846
x1 = 0.5125	4.439
x1 = 0.5675	4.067
x1 = 0.6092	3.792
x1 = 0.6833	3.388
x1 = 0.7418	3.111
x1 = 0.7986	2.871
x1 = 0.8498	2.672
x1 = 0.888	2.528
x1 = 0.9155	2.412
x1 = 0.943	2.304
x1 = 0.9583	2.252
x1 = 0.9786	2.193

CCNCCO + O=C=O
viscosity [mPa·s], 101.3 kPa
Settings	293.15 K	303.15 K	313.15 K	323.15 K
x2 = 0.09091	51.76	29.14	17.6	11.32
x2 = 0.1667	197.6	99.53	54.38	31.96
x2 = 0.2308	791.4	361	179.9	97.29

CCCCOCCO + O=[N+]([O-])c1ccccc1
298.15 K, 101 kPa
Settings	viscosity [mPa·s]
x2 = 0.0547	2.794
x2 = 0.1022	2.774
x2 = 0.2045	2.736
x2 = 0.3045	2.699
x2 = 0.4006	2.651
x2 = 0.4508	2.618
x2 = 0.4991	2.58
x2 = 0.5486	2.537
x2 = 0.594	2.492
x2 = 0.6924	2.376
x2 = 0.7994	2.223
x2 = 0.8996	2.042
x2 = 0.9389	1.959

CCCCCCCCCCCC[P+](CCCC)(CCCC)CCCC.N#Cc1ccc[n-]1 + OCCN(CCO)CCO
100 kPa
Settings	viscosity [mPa·s]
293.15 K, x1 = 0.017	983
293.15 K, x1 = 0.244	974
293.15 K, x1 = 0.325	926
293.15 K, x1 = 0.431	828
293.15 K, x1 = 0.538	765
293.15 K, x1 = 0.755	675
298.15 K, x1 = 0.035	674
298.15 K, x1 = 0.054	682
298.15 K, x1 = 0.096	687
298.15 K, x1 = 0.121	686
298.15 K, x1 = 0.177	678
